Patent US20230089867A1, “CYCLIC PENTAMER COMPOUNDS AS PROPROTEIN CONVERTASE SUBTILISIN/KEXIN TYPE 9 (PCSK9) INHIBITORS FOR THE TREATMENT OF METABOLIC DISORDER” (Novartis AG, priority 2018, published 2023)
Where two headings read alike, the source gives them in different places.

Target: human PCSK9 (Homo sapiens, UniProt Q8NBP7)
Experiment: PCSK9 ligand binding TR-FRET assay (interference with binding of human PCSK9 to human LDLR)
Conditions: for Max % inhibition: PCSK9 FRET assay, efficacy (Amax), 100% = 1 uM unlabeled human PCSK9, 0% = DMSO
Method in brief: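 Threefold compound dilutions were pre-incubated 30 min with PCSK9, after which 4 nM Europium Kryptate-tagged human LDLR ectodomain was added for a further 2 h.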

[1] = TR-FRET, human PCSK9 Alexa Fluor 647 / human LDLR extracellular domain-Europium Kryptate, read-out: PCSK9 FRET Assay IC50

SMILES | Max % inhibition [%] | IC50 [1] [nM] | IC50 [nM]
COCC(=O)N1CCc2ncc(-c3ccc(Oc4cc(Cl)ccc4CN4C(=O)C[C@@H](Cc5ccccc5)C(=O)N(C)[C@@H](C)CNC(=O)C[C@H](Cc5ccc(Cl)cc5)N(C)C(=O)[C@H](COC)NC(=O)[C@@H]4C)cc3)cc2C1 [Compound 117, (2S,5S,8S,13S,16R)-16-benzyl-1-(4-chloro-2-(4-(6-(2-methoxyacetyl)-5,6,7,8-tetrahydro-1,6-naphthyridin-3-yl)phenoxy)benzyl)-8-(4-chlorobenzyl)-5-(methoxymethyl)-2,7,13,14-tetramethyl-1,4,7,11,14-pentaazacyclooctadecane-3,6,10,15,18-pentaone] | 67.25 | 4.2 | 
COC[C@@H]1NC(=O)[C@H](C)N(Cc2ccc(Cl)cc2Oc2ccc(-c3cnc(CN(C)C)n3C)cc2)C(=O)C[C@@H](Cc2ccccn2)C(=O)N(C)[C@H]2CCCC[C@@H]2NC(=O)C[C@H](Cc2ccc(Cl)cc2)N(C)C1=O [Compound 284, (4S,7S,10S,14R,16aS,20aS)-11-(4-chloro-2-(4-(2-((dimethylamino)methyl)-1-methyl-1H-imidazol-5-yl)phenoxy)benzyl)-4-(4-chlorobenzyl)-7-(methoxymethyl)-5,10,16-trimethyl-14-(pyridin-2-ylmethyl)hexadecahydrobenzo[l][1,4,7,11,14]pentaazacyclooctadecine-2,6,9,12,15(3H)-pentaone] | 98.50 | 0.9 | 
C[C@@H]1CC(=O)N(Cc2ccc(Cl)cc2Oc2ccc(-c3cnc(CN(C)C)n3C)cc2)[C@@H](C)C(=O)N[C@@H](CO)C(=O)N(C)[C@@H](Cc2ccc(Cl)cc2)CC(=O)NC[C@H](C)N(C)C1=O [Compound 193, (2S,5S,8S,13S,16R)-1-(4-chloro-2-(4-(2-((dimethylamino)methyl)-1-methyl-1H-imidazol-5-yl)phenoxy)benzyl)-8-(4-chlorobenzyl)-5-(hydroxymethyl)-2,7,13,14,16-pentamethyl-1,4,7,11,14-pentaazacyclooctadecane-3,6,10,15,18-pentaone] | 84.54 | 6.1 | 
COC[C@@H]1NC(=O)[C@H](C)N(Cc2ccc(Cl)cc2Oc2ccc(-c3cncc(C4CCC(NCCF)CC4)c3)cc2)C(=O)C[C@@H](Cc2ccccc2)C(=O)N(C)[C@@H](C)CNC(=O)C[C@H](Cc2ccc(Cl)cc2)N(C)C1=O (some centres unmarked) |  |  | 2.7
COC[C@@H]1NC(=O)C(C)N(Cc2c(F)cc(F)cc2Oc2ccc(-c3cnc(CN(C)C)n3C)cc2)C(=O)C[C@@H](Cc2ccccc2)C(=O)N(C)[C@H]2CCCC[C@@H]2NC(=O)C[C@H](Cc2ccc(Cl)cc2)N(C)C1=O (stereo partly drawn) [Compound 41, (4S,7S,14R,16aS,20aS)-14-benzyl-4-(4-chlorobenzyl)-11-(2-(4-(2-((dimethylamino)methyl)-1-methyl-1H-imidazol-5-yl)phenoxy)-4,6-difluorobenzyl)-7-(methoxymethyl)-5,10,16-trimethylhexadecahydrobenzo[l][1,4,7,11,14]pentaazacyclooctadecine-2,6,9,12,15(3H)-pentaone] | 84.34 | 4.7 | 
COC[C@@H]1NC(=O)[C@H](C)N(Cc2ccc(Cl)cc2Oc2ccc(-c3nnc4n3CCN(C(=O)[C@@H]3CCNC3)C4)cc2)C(=O)C[C@@H](Cc2ccccc2)C(=O)N(C)[C@@H](C)CNC(=O)C[C@H](Cc2ccc(Cl)cc2)N(C)C1=O [Compound 129, (2S,5S,8S,13S,16R)-16-benzyl-1-(4-chloro-2-(4-(7-((R)-pyrrolidine-3-carbonyl)-5,6,7,8-tetrahydro-[1,2,4]triazolo[4,3-a]pyrazin-3-yl)phenoxy)benzyl)-8-(4-chlorobenzyl)-5-(methoxymethyl)-2,7,13,14-tetramethyl-1,4,7,11,14-pentaazacyclooctadecane-3,6,10,15,18-pentaone] | 94.48 | 6.3 | 
COC[C@@H]1NC(=O)[C@H](CCCN2CCOCC2)N(Cc2ccc(Cl)cc2Oc2ccc(-c3cnc(CN(C)C)n3C)cc2)C(=O)C[C@@H](Cc2ccccc2)C(=O)N(C)[C@@H](C)[C@H](C)NC(=O)C[C@H](Cc2ccc(Cl)cc2)N(C)C1=O [Compound 283, (2S,5S,8S,12S,13S,16R)-16-benzyl-1-(4-chloro-2-(4-(2-((dimethylamino)methyl)-1-methyl-1H-imidazol-5-yl)phenoxy)benzyl)-8-(4-chlorobenzyl)-5-(methoxymethyl)-7,12,13,14-tetramethyl-2-(3-morpholinopropyl)-1,4,7,11,14-pentaazacyclooctadecane-3,6,10,15,18-pentaone] | 105.87 | 1.6 | 
COC[C@@H]1NC(=O)[C@H](C)N(Cc2ccc(OC(F)(F)F)cc2Oc2ccc(-c3cnc(CN(C)C)n3C)cc2)C(=O)C[C@@H](Cc2ccccc2)C(=O)N(C)[C@@H](C)CNC(=O)C[C@H](Cc2ccc(Cl)cc2)N(C)C1=O [Compound 35, (2S,5S,8S,13S,16R)-16-benzyl-8-(4-chlorobenzyl)-1-(2-(4-(2-((dimethylamino)methyl)-1-methyl-1H-imidazol-5-yl)phenoxy)-4-(trifluoromethoxy)benzyl)-5-(methoxymethyl)-2,7,13,14-tetramethyl-1,4,7,11,14-pentaazacyclooctadecane-3,6,10,15,18-pentaone] | 104.05 | 4.2 | 
COC[C@@H]1NC(=O)[C@H](C)N(Cc2ccc(Cl)cc2Oc2ccc(-c3cnc(CN(C)C)n3C)cc2)C(=O)C[C@@H](Cc2ccccc2)C(=O)N(C)[C@@H](CO)CNC(=O)C[C@H](Cc2ccc(Cl)cc2)N(C)C1=O [Compound 235, (2S,5S,8S,13R,16R)-16-benzyl-1-(4-chloro-2-(4-(2-((dimethylamino)methyl)-1-methyl-1H-imidazol-5-yl)phenoxy)benzyl)-8-(4-chlorobenzyl)-13-(hydroxymethyl)-5-(methoxymethyl)-2,7,14-trimethyl-1,4,7,11,14-pentaazacyclooctadecane-3,6,10,15,18-pentaone] | 100.56 | 11.1 | 
COC[C@@H]1NC(=O)[C@H](C)N(Cc2ccc(Cl)cc2Oc2ccc(-c3cnc(CN(C)C)n3C)cc2)C(=O)C[C@@H](Cc2c(F)ccc(F)c2F)C(=O)N(C)[C@@H](C)CNC(=O)C[C@H](Cc2ccc(Cl)cc2)N(C)C1=O [Compound 258, (2S,5S,8S,13S,16R)-1-(4-chloro-2-(4-(2-((dimethylamino)methyl)-1-methyl-1H-imidazol-5-yl)phenoxy)benzyl)-8-(4-chlorobenzyl)-5-(methoxymethyl)-2,7,13,14-tetramethyl-16-(2,3,6-trifluorobenzyl)-1,4,7,11,14-pentaazacyclooctadecane-3,6,10,15,18-pentaone] | 98.94 | 4.3 | 
COC[C@@H]1NC(=O)[C@H](C)N(Cc2ccc(Cl)cc2Oc2ccc(-c3cnc(C(C)O)n3C)cc2)C(=O)C[C@@H](Cc2ccccc2)C(=O)N(C)[C@H]2CCCC[C@@H]2NC(=O)C[C@H](Cc2ccc(Cl)cc2)N(C)C1=O (stereo partly drawn) [Compound 242, (4S,7S,10S,14R,16aS,20aS)-14-benzyl-11-(4-chloro-2-(4-(2-(1-hydroxyethyl)-1-methyl-1H-imidazol-5-yl)phenoxy)benzyl)-4-(4-chlorobenzyl)-7-(methoxymethyl)-5,10,16-trimethylhexadecahydrobenzo[l][1,4,7,11,14]pentaazacyclooctadecine-2,6,9,12,15(3H)-pentaone] | 87.34 | 1.3 | 
COC[C@@H]1NC(=O)[C@H](CCS(C)(=O)=O)N(Cc2ccc(Cl)cc2Oc2ccc(-c3cnc(CN(C)C)n3C)cc2)C(=O)C[C@@H](Cc2ccccc2)C(=O)N(C)[C@@H](C)CNC(=O)C[C@H](Cc2ccc(Cl)cc2)N(C)C1=O [Compound 211, (2S,5S,8S,13S,16R)-16-benzyl-1-(4-chloro-2-(4-(2-((dimethylamino)methyl)-1-methyl-1H-imidazol-5-yl)phenoxy)benzyl)-8-(4-chlorobenzyl)-5-(methoxymethyl)-7,13,14-trimethyl-2-(2-(methylsulfonyl)ethyl)-1,4,7,11,14-pentaazacyclooctadecane-3,6,10,15,18-pentaone] | 102.01 | 3.9 | 
COC[C@@H]1NC(=O)[C@H](C)N(Cc2ccc(Cl)cc2Oc2ccc(-c3cnc4n3CCN(C(=O)C(C)C)C4)cc2)C(=O)C[C@@H](Cc2ccccc2)C(=O)N(C)[C@@H](C)CNC(=O)C[C@H](Cc2ccc(Cl)cc2)N(C)C1=O [Compound 132, (2S,5S,8S,13S,16R)-16-benzyl-1-(4-chloro-2-(4-(7-isobutyryl-5,6,7,8-tetrahydroimidazo[1,2-a]pyrazin-3-yl)phenoxy)benzyl)-8-(4-chlorobenzyl)-5-(methoxymethyl)-2,7,13,14-tetramethyl-1,4,7,11,14-pentaazacyclooctadecane-3,6,10,15,18-pentaone] | 71.97 | 7.3 | 
CCC[C@@H](O)[C@@H]1CC(=O)N(Cc2ccc(Cl)cc2Oc2ccc(-c3cnc(CN(C)C)n3C)cc2)[C@@H](C)C(=O)N[C@@H](COC)C(=O)N(C)[C@@H](Cc2ccc(Cl)cc2)CC(=O)NC[C@H](C)N(C)C1=O [Compound 75, (2S,5S,8S,13S,16S)-1-(4-chloro-2-(4-(2-((dimethylamino)methyl)-1-methyl-1H-imidazol-5-yl)phenoxy)benzyl)-8-(4-chlorobenzyl)-16-((R)-1-hydroxybutyl)-5-(methoxymethyl)-2,7,13,14-tetramethyl-1,4,7,11,14-pentaazacyclooctadecane-3,6,10,15,18-pentaone] | 103.69 | 4 | 
COC[C@@H]1NC(=O)[C@H](C)N(Cc2ccc(Cl)cc2Oc2ccc(-c3cnc4c(c3)CNCC4)cc2)C(=O)C[C@@H](Cc2ccccc2)C(=O)N(C)[C@@H](C)CNC(=O)C[C@H](Cc2ccc(Cl)cc2)N(C)C1=O [Compound 115, (2S,5S,8S,13S,16R)-16-benzyl-1-(4-chloro-2-(4-(5,6,7,8-tetrahydro-1,6-naphthyridin-3-yl)phenoxy)benzyl)-8-(4-chlorobenzyl)-5-(methoxymethyl)-2,7,13,14-tetramethyl-1,4,7,11,14-pentaazacyclooctadecane-3,6,10,15,18-pentaone] | 72.72 | 5.3 | 
